Target: T1, HPK1 (Homo sapiens, UniProt Q92918)
T1 construct: A HiBiT tag was introduced by CRISPR on the N terminus of HPK1 in Jurkat cells; host or cells: Jurkat cells (ATCC TIB-152), monoclonal line with CRISPR knock-in of HiBiT at the endogenous HPK1 locus
Experiment: HPK1 Cellular HiBit Degradation Assay
Assay type: cell-based
Conditions: HiBiT HPK1 Jurkat cells, 24 hrs; for DC50: concentration at which 50% of HPK1 was remaining, read-out: DC50 Category; for Dmax: Jurkat, maximum degradation vs DMSO vehicle control, read-out: Dmax Category
How it was run: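 Jurkat cells with CRISPR N-terminal HiBiT-tagged endogenous HPK1 treated 24 h at 37 °C with 11-point, 3.16-fold dilutions (10 uM to 0.1 nM final). HiBiT lytic luminescence gives % HPK1 remaining versus DMSO, with parental cells as background. Four-parameter fit yields DC50; Dmax = 100 minus lowest % remaining.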

T1 sequence (Q92918 whole entry): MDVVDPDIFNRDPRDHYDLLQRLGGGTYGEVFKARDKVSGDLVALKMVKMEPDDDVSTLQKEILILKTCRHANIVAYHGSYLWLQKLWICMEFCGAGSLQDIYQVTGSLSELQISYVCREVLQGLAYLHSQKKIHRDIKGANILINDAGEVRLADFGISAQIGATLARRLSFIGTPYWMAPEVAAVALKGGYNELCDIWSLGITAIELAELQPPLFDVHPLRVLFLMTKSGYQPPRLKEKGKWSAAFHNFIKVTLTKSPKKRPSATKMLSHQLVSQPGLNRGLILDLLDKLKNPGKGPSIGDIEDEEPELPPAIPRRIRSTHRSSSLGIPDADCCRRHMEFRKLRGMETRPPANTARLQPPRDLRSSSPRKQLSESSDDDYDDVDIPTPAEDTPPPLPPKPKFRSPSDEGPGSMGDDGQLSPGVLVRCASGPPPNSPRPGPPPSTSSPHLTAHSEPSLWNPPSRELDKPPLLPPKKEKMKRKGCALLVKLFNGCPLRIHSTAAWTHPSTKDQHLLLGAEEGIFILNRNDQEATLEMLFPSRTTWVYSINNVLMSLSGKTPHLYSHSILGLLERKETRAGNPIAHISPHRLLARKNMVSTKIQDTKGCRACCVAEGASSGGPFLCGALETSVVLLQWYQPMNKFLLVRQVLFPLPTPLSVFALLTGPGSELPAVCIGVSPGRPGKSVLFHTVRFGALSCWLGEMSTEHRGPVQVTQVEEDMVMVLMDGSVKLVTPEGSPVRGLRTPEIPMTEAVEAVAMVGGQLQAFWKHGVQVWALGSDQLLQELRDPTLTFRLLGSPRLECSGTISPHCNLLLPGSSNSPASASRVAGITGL

SMILES	DC50 [nM]	Dmax [%]
CC(C)n1cnc2cc(-c3ccc4c(c3)N([C@H]3C[C@@H](N5CCCCC5)C3)C(=O)C43CCN(C(=O)C[C@H]4CCCN(C(=O)C5CCN(c6ccc(C7CCC(=O)NC7=O)cn6)CC5)C4)CC3)nc(NC3CC3)c21 (mixture of isomers) [Example 296, (3RS)-3-(6-{4-[(3R)-3-(2-{6-[4-(cyclopropylamino)-3-(propan-2-yl)-3H-imidazo[4,5-c]pyridin-6-yl]-2-oxo-1-[(1S,3S)-3-(piperidin-1-yl)cyclobutyl]-1,2-dihydrospiro[indole-3,4′-piperidin]-1′-yl}-2-oxoethyl)piperidine-1-carbonyl]piperidin-1-yl}pyridin-3-yl)piperidine-2,6-dione]	100 to 500	70 to 85
CC(C)n1cnc2cc(-c3ccc4c(c3)N([C@H]3C[C@@H](N5CCCCC5)C3)C(=O)C43CCN(C(=O)C[C@H]4CCCN(C(=O)CC5CCN(c6ccc(C7CCC(=O)NC7=O)cn6)CC5)C4)CC3)nc(NC3CC3)c21 (mixture of isomers) [Example 297, (3RS)-3-[6-(4-{2-[(3R)-3-(2-{6-[4-(cyclopropylamino)-3-(propan-2-yl)-3H-imidazo[4,5-c]pyridin-6-yl]-2-oxo-1-[(1S,3S)-3-(piperidin-1-yl)cyclobutyl]-1,2-dihydrospiro[indole-3,4′-piperidin]-1′-yl}-2-oxoethyl)piperidin-1-yl]-2-oxoethyl}piperidin-1-yl)pyridin-3-yl]piperidine-2,6-dione]	500 to 1000	50 to 70
CC(C)n1cnc2cc(-c3ccc4c(c3)N([C@H]3C[C@@H](N5CCCCC5)C3)C(=O)C43CCN(C(=O)C[C@@H]4CCCN(C(=O)C5CCN(c6ccc(C7CCC(=O)NC7=O)cn6)CC5)C4)CC3)nc(NC3CC3)c21 (mixture of isomers) [Example 298, (3RS)-3-(6-{4-[(3S)-3-(2-{6-[4-(cyclopropylamino)-3-(propan-2-yl)-3H-imidazo[4,5-c]pyridin-6-yl]-2-oxo-1-[(1S,3S)-3-(piperidin-1-yl)cyclobutyl]-1,2-dihydrospiro[indole-3,4′-piperidin]-1′-yl}-2-oxoethyl)piperidine-1-carbonyl]piperidin-1-yl}pyridin-3-yl)piperidine-2,6-dione]	100 to 500	50 to 70
CC(C)n1cnc2cc(-c3ccc4c(c3)N([C@H]3C[C@@H](N5CCCCC5)C3)C(=O)C43CCN(C(=O)C[C@@H]4CCCN(C(=O)CC5CCN(c6ccc(C7CCC(=O)NC7=O)cn6)CC5)C4)CC3)nc(NC3CC3)c21 (mixture of isomers) [Example 299, (3RS)-3-[6-(4-{2-[(3S)-3-(2-{6-[4-(cyclopropylamino)-3-(propan-2-yl)-3H-imidazo[4,5-c]pyridin-6-yl]-2-oxo-1-[(1S,3S)-3-(piperidin-1-yl)cyclobutyl]-1,2-dihydrospiro[indole-3,4′-piperidin]-1′-yl}-2-oxoethyl)piperidin-1-yl]-2-oxoethyl}piperidin-1-yl)pyridin-3-yl]piperidine-2,6-dione]	100 to 500	70 to 85
CC(C)n1cnc2cc(-c3ccc4c(c3)N([C@H]3C[C@@H](N5CCCCC5)C3)C(=O)C43CCN(C(=O)c4cccc(C5CCN(C(=O)C6CCN(c7ccc(C8CCC(=O)NC8=O)cn7)CC6)CC5)c4)CC3)nc(NC3CC3)c21 (mixture of isomers) [Example 301, (3RS)-3-[6-(4-{4-[3-({6-[4-(cyclopropylamino)-3-(propan-2-yl)-3H-imidazo[4,5-c]pyridin-6-yl]-2-oxo-1-[(1S,3S)-3-(piperidin-1-yl)cyclobutyl]-1,2-dihydrospiro[indole-3,4′-piperidin]-1′-yl}carbonyl)phenyl]piperidine-1-carbonyl}piperidin-1-yl)pyridin-3-yl]piperidine-2,6-dione]	100 to 500	50 to 70
CC(C)n1cnc2cc(-c3ccc4c(c3)N([C@H]3C[C@@H](N5CCCCC5)C3)C(=O)C43CCN(C(=O)c4ccc(C5CCN(C(=O)C6CCN(c7ccc(C8CCC(=O)NC8=O)cn7)CC6)CC5)cc4)CC3)nc(NC3CC3)c21 (mixture of isomers) [Example 302, (3RS)-3-[6-(4-{4-[4-({6-[4-(cyclopropylamino)-3-(propan-2-yl)-3H-imidazo[4,5-c]pyridin-6-yl]-2-oxo-1-[(1S,3S)-3-(piperidin-1-yl)cyclobutyl]-1,2-dihydrospiro[indole-3,4′-piperidin]-1′-yl}carbonyl)phenyl]piperidine-1-carbonyl}piperidin-1-yl)pyridin-3-yl]piperidine-2,6-dione]	100 to 500	70 to 85

More lines, now with the values ahead:

DC50 [nM]	Dmax [%]	SMILES
100 to 500	70 to 85	CC(C)n1cnc2cc(-c3ccc4c(c3)N([C@H]3C[C@@H](N5CCCCC5)C3)C(=O)C43CCN(C(=O)C4CCC5(CCC5)N(C(=O)C5CCN(c6ccc(C7CCC(=O)NC7=O)cn6)CC5)C4)CC3)nc(NC3CC3)c21 (mixture of isomers) [Example 290, (3RS)-3-(6-{4-[7-({6-[4-(cyclopropylamino)-3-(propan-2-yl)-3H-imidazo[4,5-c]pyridin-6-yl]-2-oxo-1-[(1S,3S)-3-(piperidin-1-yl)cyclobutyl]-1,2-dihydrospiro[indole-3,4′-piperidin]-1′-yl}carbonyl)-5-azaspiro[3.5]nonane-5-carbonyl]piperidin-1-yl}pyridin-3-yl)piperidine-2,6-dione]
100 to 500	70 to 85	CC(C)n1cnc2cc(-c3ccc4c(c3)N([C@H]3C[C@@H](N5CCCCC5)C3)C(=O)C43CCN(C(=O)[C@H]4CC[C@H](CNC(=O)C5CCN(c6ccc(C7CCC(=O)NC7=O)cn6)CC5)CC4)CC3)nc(NC3CC3)c21 (mixture of isomers) [Example 291, 1-{5-[(3RS)-2,6-dioxopiperidin-3-yl]pyridin-2-yl}-N-{[(1R,4R)-4-({6-[4-(cyclopropylamino)-3-(propan-2-yl)-3H-imidazo[4,5-c]pyridin-6-yl]-2-oxo-1-[(1S,3S)-3-(piperidin-1-yl)cyclobutyl]-1,2-dihydrospiro[indole-3,4′-piperidin]-1′-yl}carbonyl)cyclohexyl]methyl}piperidine-4-carboxamide]
100 to 500	70 to 85	CC(C)n1cnc2cc(-c3ccc4c(c3)N([C@H]3C[C@@H](N5CCCCC5)C3)C(=O)C43CCN(C(=O)[C@@H]4CCC[C@H](NC(=O)CC5CCN(c6ccc(C7CCC(=O)NC7=O)cn6)CC5)C4)CC3)nc(NC3CC3)c21 (mixture of isomers) [Example 292, N-[(1S,3R)-3-({6-[4-(cyclopropylamino)-3-(propan-2-yl)-3H-imidazo[4,5-c]pyridin-6-yl]-2-oxo-1-[(1s,3s)-3-(piperidin-1-yl)cyclobutyl]-1,2-dihydrospiro[indole-3,4′-piperidin]-1′-yl}carbonyl)cyclohexyl]-2-(1-{5-[(3RS)-2,6-dioxopiperidin-3-yl]pyridin-2-yl}piperidin-4-yl)acetamide]
100 to 500	70 to 85	CC(C)n1cnc2cc(-c3ccc4c(c3)N([C@H]3C[C@@H](N5CCCCC5)C3)C(=O)C43CCN(C(=O)c4ccc(CN5CCN(C(=O)C6CCN(c7ccc(C8CCC(=O)NC8=O)cn7)CC6)CC5)cc4)CC3)nc(NC3CC3)c21 (mixture of isomers) [Example 293, (3RS)-3-{6-[4-(4-{[4-({6-[4-(cyclopropylamino)-3-(propan-2-yl)-3H-imidazo[4,5-c]pyridin-6-yl]-2-oxo-1-[(1S,3S)-3-(piperidin-1-yl)cyclobutyl]-1,2-dihydrospiro[indole-3,4′-piperidin]-1′-yl}carbonyl)phenyl]methyl}piperazine-1-carbonyl)piperidin-1-yl]pyridin-3-yl}piperidine-2,6-dione]
100 to 500	70 to 85	CC(C)n1cnc2cc(-c3ccc4c(c3)N([C@H]3C[C@@H](N5CCCCC5)C3)C(=O)C43CCN(C(=O)C4CCC5(CCN(C(=O)C6CCN(c7ccc(C8CCC(=O)NC8=O)cn7)CC6)CC5)C4)CC3)nc(NC3CC3)c21 (mixture of isomers) [Example 294, (3RS)-3-(6-{4-[2-({6-[4-(cyclopropylamino)-3-(propan-2-yl)-3H-imidazo[4,5-c]pyridin-6-yl]-2-oxo-1-[(1S,3S)-3-(piperidin-1-yl)cyclobutyl]-1,2-dihydrospiro[indole-3,4′-piperidin]-1′-yl}carbonyl)-8-azaspiro[4.5]decane-8-carbonyl]piperidin-1-yl}pyridin-3-yl)piperidine-2,6-dione]
100 to 500	70 to 85	CC(C)n1cnc2cc(-c3ccc4c(c3)N([C@H]3C[C@@H](N5CCCCC5)C3)C(=O)C43CCN(C(=O)C4CCC5(CC4)CCN(C(=O)C4CCN(c6ccc(C7CCC(=O)NC7=O)cn6)CC4)CC5)CC3)nc(NC3CC3)c21 (mixture of isomers) [Example 295, (3RS)-3-(6-{4-[9-({6-[4-(cyclopropylamino)-3-(propan-2-yl)-3H-imidazo[4,5-c]pyridin-6-yl]-2-oxo-1-[(1S,3S)-3-(piperidin-1-yl)cyclobutyl]-1,2-dihydrospiro[indole-3,4′-piperidin]-1′-yl}carbonyl)-3-azaspiro[5.5]undecane-3-carbonyl]piperidin-1-yl}pyridin-3-yl)piperidine-2,6-dione]
< 100	70 to 85	CC(C)n1cnc2cc(-c3ccc4c(c3)N([C@H]3C[C@@H](N5CCCCC5)C3)C(=O)C43CCN(C(=O)C4(C5CCN(C(=O)C6CCN(c7ccc(C8CCC(=O)NC8=O)cn7)CC6)CC5)CCC4)CC3)nc(NC3CC3)c21 (mixture of isomers) [Example 300, (3RS)-3-[6-(4-{4-[1-({6-[4-(cyclopropylamino)-3-(propan-2-yl)-3H-imidazo[4,5-c]pyridin-6-yl]-2-oxo-1-[(1S,3S)-3-(piperidin-1-yl)cyclobutyl]-1,2-dihydrospiro[indole-3,4′-piperidin]-1′-yl}carbonyl)cyclobutyl]piperidine-1-carbonyl}piperidin-1-yl)pyridin-3-yl]piperidine-2,6-dione]

From patent US12091426B2, “Bifunctional degraders of hematopoietic progenitor kinase and therapeutic uses thereof” (Nurix Therapeutics, Inc., priority 2021, dated 2024)
